Consider 77 sequences from the supplement of paper PMC11208160.
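Note: IS621 recombinase and bridge RNA in Escherichia coli cells.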

The nature of this series: recombinant barcode read abundance after kanamycin selection (control-corrected) (log10(CPM+1)); higher = more efficient recombination; sequences stand for … in AGTGCAGAGAAAATCGGCCAGTTTTCTCTGCCTGCAGTCCGCATGCCGT…AGATTTATGCAGCGGACTGCCTTTCTCCCAAAGTGATAAACCGGACAGTATCATGGACCGGTTTTCCCGGTAATCCGTATTTGCAAGGTTGGTTTCACT; site = the 11-nt target. The essentials: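 In E. coli, a pooled library matched targets to IS621 bridge RNA target-binding loops and was introduced alongside a donor plasmid. Cells went onto chloramphenicol/ampicillin/kanamycin with 0.1 mM IPTG or onto chloramphenicol/ampicillin LB agar as control, in duplicate. Recombination efficiency, from recombinant-junction barcodes as counts per million, is averaged and control-corrected. It is reported as log10(CPM+1).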
For the sequence “TTAGTGCCTTGGGTTCTAACCTGTTGCCT (site TTAGTTCCTAG)”, the “recombinant barcode read abundance (log10)” value turned out to be 0.0759.
The figure for “TTAGTTCCTTGGGTTCTAACCTGTTGCCT (site TTAGTACCTAG)” is 0.146; for “TTAGTTCCTTGGGTTCTAACCTGTTGCCT (site TTAGTCCCTAG)” it is 0.186; for “TTAGTTCCTTGGGTTCTAACCTGTTGCCT (site TTAGTGCCTAG)” it is 0.
Under “TTAGTTCCTTGGGTTCTAACCTGTTGCCT (site TTAGTTCCTAG)” stands 0.634; under “TTATAAGCTTGGGTTCTAACCTGTTGCCA (site GTATGAGCTTG)”, 0.0336.
The figure for “TTATAAGCTTGGGTTCTAACCTGTTGCCA (site TTATAAGCTTG)” is 0.269; for “TTATTCACTTGGGTTCTAACCTGTTGCCT (site TCATTGACTAG)” it is 0.0352; for “TTATTCACTTGGGTTCTAACCTGTTGCCT (site TTATTCACTAG)” it is 1.48.
For “TTCAAGTCTTGGGTTCTAACCTGTTGCCT (site TTCAAGACTAG)”, the “recombinant barcode read abundance (log10)” value turned out to be 0.102.
Under “TTCAAGTCTTGGGTTCTAACCTGTTGCCT (site TTCAAGCCTAG)” stands 0.198; under “TTCAAGTCTTGGGTTCTAACCTGTTGCCT (site TTCAAGGCTAG)”, 0.0708.
The figure for “TTCAAGTCTTGGGTTCTAACCTGTTGCCT (site TTCAAGTCTAG)” is 0.33; for “TTCACGTCTTGGGTTCTAACCTGTTGCCT (site TTCACGTCTAG)” it is 0.202.
Under “TTCACGTCTTGGGTTCTAACCTGTTGCCT (site TTCATGTCTAG)” stands 0.0406; under “TTCAGACCTTGGGTTCTAACCTGTTGCCT (site AGGTACACTGT)”, 0.0824.
Turning to “TTCAGACCTTGGGTTCTAACCTGTTGCCT (site TTCAGACCTAG)”, the “recombinant barcode read abundance (log10)” value was 0.912.
Consider “TTCCAAACTTGGGTTCTAACCTGTTGCGG (site TTCCAAACTCC)”, for which the “recombinant barcode read abundance (log10)” value was found to be 1.31.
Under “TTCCAAACTTGGGTTCTAACCTGTTGCGG (site TTCCACACTCC)” stands 0.193.
Under “TTCCTATCTTGGGTTCTAACCTGTTGCCT (site TACCTATCTAG)” stands 0.221; under “TTCCTATCTTGGGTTCTAACCTGTTGCCT (site TCCCTATCTAG)”, 0.071.
The figure for “TTCCTATCTTGGGTTCTAACCTGTTGCCT (site TGCCTATCTAG)” is 0.0749.
For the sequence “TTCCTATCTTGGGTTCTAACCTGTTGCCT (site TTCCTATCTAG)”, the “recombinant barcode read abundance (log10)” value came out at 0.354.
For “TTCGAGTCTTGGGTTCTAACCTGTTGCGG (site TGCGAGTCTAC)”, the “recombinant barcode read abundance (log10)” value was found to be 0.0798.
The figure for “TTCGAGTCTTGGGTTCTAACCTGTTGCGG (site TTCGAGTCTCC)” is 1.91.
In the case of “TTCGCGCCTTGGGTTCTAACCTGTTGCCT (site TTCACGCCTAG)”, the “recombinant barcode read abundance (log10)” value worked out at 0.0251.
The figure for “TTCGCGCCTTGGGTTCTAACCTGTTGCCT (site TTCCCGCCTAG)” is 0.144.
Under “TTCGCGCCTTGGGTTCTAACCTGTTGCCT (site TTCGCGCCTAG)” stands 0.134.
The figure for “TTCGCGCCTTGGGTTCTAACCTGTTGCCT (site TTCTCGCCTAG)” is 0.176; for “TTCGGGCCTTGGGTTCTAACCTGTTGCCT (site ATCGGGCCTAG)” it is 0.0878; for “TTCGGGCCTTGGGTTCTAACCTGTTGCCT (site CTCGGGCCTAG)” it is 0.0465.
For “TTCGGGCCTTGGGTTCTAACCTGTTGCCT (site GTCGGGCCTAG)”, the “recombinant barcode read abundance (log10)” value was determined as 0.0582.
The figure for “TTCGGGCCTTGGGTTCTAACCTGTTGCCT (site TTCGGGCCTAG)” is 0.169; for “TTCTAGTCTTGGGTTCTAACCTGTTGCTA (site ACAAGACCTAT)” it is 0.0562; for “TTCTAGTCTTGGGTTCTAACCTGTTGCTA (site TTCTAGTCTTA)” it is 0.416.
Under “TTCTGCGCTTGGGTTCTAACCTGTTGCCT (site TTCTGAGCTAG)” stands 0.0215.
The figure for “TTCTGCGCTTGGGTTCTAACCTGTTGCCT (site TTCTGCGCTAG)” is 1.2; for “TTCTGCGCTTGGGTTCTAACCTGTTGCCT (site TTCTGGGCTAG)” it is 0.0626.
As to “TTCTGCGCTTGGGTTCTAACCTGTTGCCT (site TTCTGTGCTAG)”, the “recombinant barcode read abundance (log10)” value was 0.191.
Under “TTCTGGGCTTGGGTTCTAACCTGTTGCCT (site TTCTGAGCTAG)” stands 0.172; under “TTCTGGGCTTGGGTTCTAACCTGTTGCCT (site TTCTGCGCTAG)”, 0.0493; under “TTCTGGGCTTGGGTTCTAACCTGTTGCCT (site TTCTGGGCTAG)”, 0.
Consider “TTCTGGGCTTGGGTTCTAACCTGTTGCCT (site TTCTGTGCTAG)”, for which the “recombinant barcode read abundance (log10)” value was 0.137.
On to “TTGAAACCTTGGGTTCTAACCTGTTGCCT (site GACGCCTCTGC)”, for which the “recombinant barcode read abundance (log10)” value amounted to 0.0146.
Under “TTGAAACCTTGGGTTCTAACCTGTTGCCT (site TTGAAACCTAG)” stands 1.04; under “TTGAGGCCTTGGGTTCTAACCTGTTGCCT (site ATGAGGCCTAG)”, 0.059; under “TTGAGGCCTTGGGTTCTAACCTGTTGCCT (site CTGAGGCCTAG)”, 0.0268.
For “TTGAGGCCTTGGGTTCTAACCTGTTGCCT (site GTGAGGCCTAG)”, the “recombinant barcode read abundance (log10)” value was 0.0327.
Consider “TTGAGGCCTTGGGTTCTAACCTGTTGCCT (site TTGAGGCCTAG)”, for which the “recombinant barcode read abundance (log10)” value came to 0.0305.
On to “TTGAGTCCTTGGGTTCTAACCTGTTGCCT (site TTGAGTCCTAG)”, for which the “recombinant barcode read abundance (log10)” value was 1.04.
The figure for “TTGAGTCCTTGGGTTCTAACCTGTTGCCT (site TTGGGTCCTAC)” is 0.319; for “TTGATAGCTTGGGTTCTAACCTGTTGCTA (site ACCGCGTCTAT)” it is 0.174.
The figure for “TTGATAGCTTGGGTTCTAACCTGTTGCTA (site TTGATAGCTTA)” is 0.203; for “TTGCAAACTTGGGTTCTAACCTGTTGCCT (site TTGCAAACTAG)” it is 0.501.
The figure for “TTGCAAACTTGGGTTCTAACCTGTTGCCT (site TTGCCAACTAG)” is 0.0256.
Take “TTGCAAACTTGGGTTCTAACCTGTTGCCT (site TTGCGAACTAG)”: the “recombinant barcode read abundance (log10)” value worked out at 0.0337.
Under “TTGCAAACTTGGGTTCTAACCTGTTGCCT (site TTGCTAACTAG)” stands 0.0349; under “TTGCGAACTTGGGTTCTAACCTGTTGCAG (site GACGCGGCTAG)”, 0.0589.
Under “TTGCGAACTTGGGTTCTAACCTGTTGCAG (site TTGCGAACTCT)” stands 0.455; under “TTGCGAACTTGGGTTCTAACCTGTTGCCT (site TTGCAAACTAG)”, 0.0904; under “TTGCGAACTTGGGTTCTAACCTGTTGCCT (site TTGCCAACTAG)”, 0.269.
The figure for “TTGCGAACTTGGGTTCTAACCTGTTGCCT (site TTGCGAACTAG)” is 0.868; for “TTGCGAACTTGGGTTCTAACCTGTTGCCT (site TTGCTAACTAG)” it is 0.0519.
Take “TTGCTAACTTGGGTTCTAACCTGTTGCCT (site TTGCAAACTAG)”: the “recombinant barcode read abundance (log10)” value came out at 0.0817.
Under “TTGCTAACTTGGGTTCTAACCTGTTGCCT (site TTGCCAACTAG)” stands 0.0109; under “TTGCTAACTTGGGTTCTAACCTGTTGCCT (site TTGCGAACTAG)”, 0.0431; under “TTGCTAACTTGGGTTCTAACCTGTTGCCT (site TTGCTAACTAG)”, 0.802.
The figure for “TTGGATACTTGGGTTCTAACCTGTTGCCA (site CATCTACCTCC)” is 0.103; for “TTGGATACTTGGGTTCTAACCTGTTGCCA (site TTGGATACTTG)” it is 1.04.
Under “TTGGCCACTTGGGTTCTAACCTGTTGCCT (site TTGGACACTAG)” stands 0.0972.
With “TTGGCCACTTGGGTTCTAACCTGTTGCCT (site TTGGCCACTAG)”, the “recombinant barcode read abundance (log10)” value is 1.08.
Under “TTGGCCACTTGGGTTCTAACCTGTTGCCT (site TTGGGCACTAG)” stands 0.121; under “TTGGCCACTTGGGTTCTAACCTGTTGCCT (site TTGGTCACTAG)”, 0.0232.
As for “TTGGCCGCTTGGGTTCTAACCTGTTGCCT (site TTGGACGCTAG)”, the “recombinant barcode read abundance (log10)” value was found to be 0.109.
Turning to “TTGGCCGCTTGGGTTCTAACCTGTTGCCT (site TTGGCCGCTAG)”, the “recombinant barcode read abundance (log10)” value was 1.65.
Under “TTGGCCGCTTGGGTTCTAACCTGTTGCCT (site TTGGGCGCTAG)” stands 0.374.
Under “TTGGCCGCTTGGGTTCTAACCTGTTGCCT (site TTGGTCGCTAG)” stands 0.148.
